Patent US8010296B2, “Apparatus and method for removing non-discriminatory indices of an indexed dataset” (Drexel University, priority 2002, dated 2011)

Tested on: rat liver
Conditions: treated rats, liver samples; selection by visual inspection and ALT measurement
Procedure: Forty-eight polypeptide spectra were prepared from rat liver samples under four toxicological conditions (G=4).
While it was desirable that samples from each group be completely separated from those of other groups, it was especially important that samples from Group 4 (high toxicity) were separated from the others.

Compound | Toxicity
S=C=Nc1cccc2ccccc12 [Alpha-naphthyl Isothiocyanate (ANIT), Alpha-naphthyl Isothiocyanate] | Mild
ClC(Cl)(Cl)Cl [Carbon Tetrachloride (CCl4), Carbon Tetrachloride] | Mild
